Test results reported in ChEMBL document CHEMBL5055675, “Apoptosis Inducing 1,3,4-Oxadiazole Conjugates of Capsaicin: Their In Vitro Antiproliferative and In Silico Studies” (ACS Med Chem Lett, 2021).
Active and inactive are the calls of the source. The calls are words filed in the database; no cut-off is given here.

Columns and labels:
A549 = test: Antiproliferative activity against human A549/ATCC cells assessed as cell growth at 10 uM incubated for 48 hrs by sulforhodamine B assay relative to control; format: functional; conditions: read-out: Activity
MCF7 = test: Antiproliferative activity against human MCF7 cells assessed as cell growth at 10 uM incubated for 48 hrs by sulforhodamine B assay relative to control; format: functional; conditions: read-out: Activity
ACHN = test: Antiproliferative activity against human ACHN cells assessed as cell growth at 10 uM incubated for 48 hrs by sulforhodamine B assay relative to control; format: functional; conditions: read-out: Activity
SW-620 = test: Antiproliferative activity against human SW-620 cells assessed as cell growth at 10 uM incubated for 48 hrs by sulforhodamine B assay relative to control; format: functional; conditions: read-out: Activity
HCT-116 [1] = test: Antiproliferative activity against human HCT-116 cells assessed as cell growth at 10 uM incubated for 48 hrs by sulforhodamine B assay relative to control; format: functional; conditions: read-out: Activity
M14 = test: Antiproliferative activity against human M14 cells assessed as cell growth at 10 uM incubated for 48 hrs by sulforhodamine B assay relative to control; format: functional; conditions: read-out: Activity
KM12 = test: Antiproliferative activity against human KM12 cells assessed as cell growth at 10 uM incubated for 48 hrs by sulforhodamine B assay relative to control; format: functional; conditions: read-out: Activity
PC-3 = test: Antiproliferative activity against human PC-3 cells assessed as cell growth at 10 uM incubated for 48 hrs by sulforhodamine B assay relative to control; format: functional; conditions: read-out: Activity
DU-145 = test: Antiproliferative activity against human DU-145 cells assessed as cell growth at 10 uM incubated for 48 hrs by sulforhodamine B assay relative to control; format: functional; conditions: read-out: Activity
786-0 = test: Antiproliferative activity against human 786-0 cells assessed as cell growth at 10 uM incubated for 48 hrs by sulforhodamine B assay relative to control; format: functional; conditions: read-out: Activity
MDA-MB-468 = test: Antiproliferative activity against human MDA-MB-468 cells assessed as cell growth at 10 uM incubated for 48 hrs by sulforhodamine B assay relative to control; format: functional; conditions: read-out: Activity
UACC-257 = test: Antiproliferative activity against human UACC-257 cells assessed as cell growth at 10 uM incubated for 48 hrs by sulforhodamine B assay relative to control; format: functional; conditions: read-out: Activity
OVCAR-3 = test: Antiproliferative activity against human OVCAR-3 cells assessed as cell growth at 10 uM incubated for 48 hrs by sulforhodamine B assay relative to control; format: functional; conditions: read-out: Activity
RXF 393 = test: Antiproliferative activity against human RXF 393 cells assessed as cell growth at 10 uM incubated for 48 hrs by sulforhodamine B assay relative to control; format: functional; conditions: read-out: Activity
MDA-MB-231 = test: Antiproliferative activity against human MDA-MB-231/ATCC cells assessed as cell growth at 10 uM incubated for 48 hrs by sulforhodamine B assay relative to control; format: functional; conditions: read-out: Activity
HL-60(TB) = test: Antiproliferative activity against human HL-60 (TB) cells assessed as cell growth at 10 uM incubated for 48 hrs by sulforhodamine B assay relative to control; format: functional; conditions: read-out: Activity
UO-31 = test: Antiproliferative activity against human UO-31 cells assessed as cell growth at 10 uM incubated for 48 hrs by sulforhodamine B assay relative to control; format: functional; conditions: read-out: Activity
T47D = test: Antiproliferative activity against human T47D cells assessed as cell growth at 10 uM incubated for 48 hrs by sulforhodamine B assay relative to control; format: functional; conditions: read-out: Activity
NCI-H460 [2] = test: Antiproliferative activity against human NCI-H460 cells assessed as cell growth at 10 uM incubated for 48 hrs by sulforhodamine B assay relative to control; format: functional; conditions: read-out: Activity
LOX IMVI = test: Antiproliferative activity against human LOX IMVI cells assessed as cell growth at 10 uM incubated for 48 hrs by sulforhodamine B assay relative to control; format: functional; conditions: read-out: Activity
NCI-H460 [3] = test: Cell cycle arrest in human NCI-H460 cells assessed as accumulation of cells in G1 phase at 5 uM measured after 72 hrs by propidium iodide/RNase staining based flow cytometry analysis (Rvb= 62.9%); format: functional
NCI-H460 [4] = test: Inhibition of colony formation in human NCI-H460 cells assessed as reduction in colony formation incubated for 15 days and subsequent media replacement with compound for every 72 hrs by crystal violet staining based assay; format: functional, cell-based; conditions: dose 5-20 µM, time 15.0 day
HCT-116 [5] = test: Antiproliferative activity against human HCT-116 cells assessed as cell growth inhibition measured after 72 hrs by crystal violet staining based assay; format: functional; conditions: HCT-116, 72 h
NCI-H460 [6] = test: Cell cycle arrest in human NCI-H460 cells assessed as accumulation of cells in S phase at 10 uM measured after 72 hrs by propidium iodide/RNase staining based flow cytometry analysis (Rvb= 26.87%); format: functional
NCI-H460 [7] = test: Induction of apoptosis in human NCI-H460 cells assessed as decrease in pro-caspase3 expression level at 1 to 20 uM measured after 72 hrs by western blot analysis; format: functional, cell-based; conditions: dose 1-20 µM
NCI-H460 [8] = test: Induction of apoptosis in human NCI-H460 cells assessed as early apoptotic cells at 10 uM measured after 72 hrs by Annexin V-FITC and propidium iodide staining based flow cytometry analysis (Rvb= 6.61%); format: functional
NCI-H460 [9] = test: Effect on p53 expression in human NCI-H460 cells at 1 to 20 uM measured after 72 hrs by western blot analysis; format: functional, cell-based; conditions: dose 1-20 µM
NCI-H460 [10] = test: Cell cycle arrest in human NCI-H460 cells assessed as accumulation of cells in G2/M phase at 20 uM measured after 72 hrs by propidium iodide/RNase staining based flow cytometry analysis (Rvb= 10.22%); format: functional
NCI-H460 [11] = test: Cell cycle arrest in human NCI-H460 cells assessed as accumulation of cells in G1 phase at 20 uM measured after 72 hrs by propidium iodide/RNase staining based flow cytometry analysis (Rvb= 62.9%); format: functional
NCI-H460 [12] = test: Induction of apoptosis in human NCI-H460 cells assessed as late apoptotic cells at 20 uM measured after 72 hrs by Annexin V-FITC and propidium iodide staining based flow cytometry analysis (Rvb= 6.93%); format: functional
NCI-H460 [13] = test: Antimigratory activity against human NCI-H460 cells assessed as reduction in vimentin expression level at 1 to 20 uM measured after 72 hrs by western blot analysis; format: functional, cell-based; conditions: dose 1-20 µM
NCI-H460 [14] = test: Induction of apoptosis in human NCI-H460 cells assessed as late apoptotic cells at 10 uM measured after 72 hrs by Annexin V-FITC and propidium iodide staining based flow cytometry analysis (Rvb= 6.93%); format: functional
NCI-H460 [15] = test: Cell cycle arrest in human NCI-H460 cells assessed as accumulation of cells in S phase at 20 uM measured after 72 hrs by propidium iodide/RNase staining based flow cytometry analysis (Rvb= 26.87%); format: functional
NCI-H460 [16] = test: Cell cycle arrest in human NCI-H460 cells assessed as accumulation of cells in G1 phase at 10 uM measured after 72 hrs by propidium iodide/RNase staining based flow cytometry analysis (Rvb= 62.9%); format: functional
NCI-H460 [17] = test: Antimigratory activity against human NCI-H460 cells assessed as inhibition of cell migration measured after 24 hrs by wound healing assay; format: functional, cell-based; conditions: dose 5-20 µM
NCI-H460 [18] = test: Cell cycle arrest in human NCI-H460 cells assessed as accumulation of cells in G2/M phase at 5 uM measured after 72 hrs by propidium iodide/RNase staining based flow cytometry analysis (Rvb= 10.22%); format: functional
NCI-H460 [19] = test: Induction of ROS production in human NCI-H460 cells incubated for 24 hrs by CM-H2DCFDA probe based flow cytometry analysis; format: functional, cell-based; conditions: dose 5-20 µM

COc1cc(CNC(=O)CCCC/C=C/C(C)C)ccc1OCc1nnc(Nc2cccc(Br)c2)o1
growth at 10 µM (A549): 95.4% | growth at 10 µM (MCF7): 83.7% | growth at 10 µM (ACHN): 85.1% | growth at 10 µM (SW-620): 95.4% | growth at 10 µM (HCT-116 [1]): 67.6% | growth at 10 µM (M14): 93.3% | growth at 10 µM (KM12): 90.3% | growth at 10 µM (PC-3): 87.9% | growth at 10 µM (DU-145): 89.8% | growth at 10 µM (786-0): 95.6% | growth at 10 µM (MDA-MB-468): 48.1% | growth at 10 µM (UACC-257): 105% | growth at 10 µM (OVCAR-3): 88% | growth at 10 µM (RXF 393): 70.6% | growth at 10 µM (MDA-MB-231): 78.3% | growth at 10 µM (HL-60(TB)): 79.8% | growth at 10 µM (UO-31): 64% | growth at 10 µM (T47D): 58.9% | growth at 10 µM (NCI-H460 [2]): 97.5% | growth at 10 µM (LOX IMVI): 88.9%

COc1cc(CNC(=O)CCCC/C=C/C(C)C)ccc1OCc1nnc(Nc2ccc([N+](=O)[O-])cc2)o1
growth at 10 µM (A549): 49% | Activity (NCI-H460 [3]): 61.8% | inhibition (NCI-H460 [4]): Dose-dependent effect | IC50 (HCT-116 [5]): 8.55 µM | Activity (NCI-H460 [6]): 29.05% | growth at 10 µM (MCF7): 55.2% | growth at 10 µM (ACHN): 41.2% | Activity (NCI-H460 [7]): Active | Activity (NCI-H460 [8]): 8.29% | growth at 10 µM (SW-620): 67.3% | Activity (NCI-H460 [9]): inactive | Activity (NCI-H460 [10]): 8.706% | growth at 10 µM (HCT-116 [1]): 24.6% | growth at 10 µM (M14): 69.6% | Activity (NCI-H460 [11]): 56.45% | growth at 10 µM (KM12): 71.7% | growth at 10 µM (PC-3): 37.6% | Activity (NCI-H460 [12]): 17.44% | Activity (NCI-H460 [13]): inactive | growth at 10 µM (DU-145): 62% | growth at 10 µM (786-0): 22.2% | growth at 10 µM (MDA-MB-468): 53.8% | Activity (NCI-H460 [14]): 9.27% | growth at 10 µM (UACC-257): 77.6% | growth at 10 µM (OVCAR-3): 77.3% | growth at 10 µM (RXF 393): 54.1% | Activity (NCI-H460 [15]): 34.83% | Activity (NCI-H460 [16]): 59.13% | growth at 10 µM (MDA-MB-231): 67.1% | growth at 10 µM (HL-60(TB)): 101% | growth at 10 µM (UO-31): 58.7% | growth at 10 µM (T47D): 48.6% | Activity (NCI-H460 [17]): Dose-dependent effect | Activity (NCI-H460 [18]): 10.03% | growth at 10 µM (NCI-H460 [2]): 33.5% | growth at 10 µM (LOX IMVI): 55.2% | Activity (NCI-H460 [19]): Dose-dependent effect

COc1cc(CNC(=O)CCCC/C=C/C(C)C)ccc1OCc1nnc(SCCc2c[nH]c3ccccc23)o1
growth at 10 µM (A549): 79.4% | IC50 (HCT-116 [5]): 13.4 µM | growth at 10 µM (MCF7): 58.8% | growth at 10 µM (ACHN): 76.5% | growth at 10 µM (SW-620): 84.7% | growth at 10 µM (HCT-116 [1]): 70% | growth at 10 µM (KM12): 73.3% | growth at 10 µM (PC-3): 56.9% | growth at 10 µM (DU-145): 94.9% | growth at 10 µM (786-0): 89.3% | growth at 10 µM (MDA-MB-468): 51.8% | growth at 10 µM (UACC-257): 101% | growth at 10 µM (OVCAR-3): 88.3% | growth at 10 µM (RXF 393): 54% | growth at 10 µM (MDA-MB-231): 70.6% | growth at 10 µM (HL-60(TB)): 50.2% | growth at 10 µM (UO-31): 45% | growth at 10 µM (T47D): 43% | growth at 10 µM (NCI-H460 [2]): 89.8% | growth at 10 µM (LOX IMVI): 55.2%

COc1cc(CNC(=O)CCCC/C=C/C(C)C)ccc1OCc1nnc(Nc2ccccc2F)o1
growth at 10 µM (A549): 105% | IC50 (HCT-116 [5]): 10.5 µM | growth at 10 µM (MCF7): 66.9% | growth at 10 µM (ACHN): 56% | growth at 10 µM (SW-620): 98.9% | growth at 10 µM (HCT-116 [1]): 53.5% | growth at 10 µM (M14): 99.7% | growth at 10 µM (KM12): 78.8% | growth at 10 µM (PC-3): 72.5% | growth at 10 µM (DU-145): 88.7% | growth at 10 µM (786-0): 12% | growth at 10 µM (MDA-MB-468): 58.9% | growth at 10 µM (UACC-257): 98.2% | growth at 10 µM (OVCAR-3): 68.3% | growth at 10 µM (RXF 393): 68.8% | growth at 10 µM (MDA-MB-231): 63.9% | growth at 10 µM (HL-60(TB)): 89.7% | growth at 10 µM (UO-31): 52.8% | growth at 10 µM (T47D): 65% | growth at 10 µM (NCI-H460 [2]): 80.3% | growth at 10 µM (LOX IMVI): 83.4%
